Data on one substance can be found in patent publication US4978744A, “Synthesis of dolastatin 10” (Arizona Board of Regents, priority 1989, dated 1990).

This test has as its system P388 lymphocytic leukemia. Put plainly: Activity against the P388 lymphocytic leukemia. Type of test: cell-based. To be noted: same level as routinely obtained with the natural product.

Regarding dolastatin 10 [Synthetic dolastatin 10], the “ED50, activity against the P388 lymphocytic leukemia” value is given as 10^-4 μg/mL.
